# From ChEMBL document CHEMBL1139649, “Hetaryl imidazoles: a novel dual inhibitors of VEGF receptors I and II” (Bioorg Med Chem Lett, 2006)
# Biological target: Vascular endothelial growth factor receptor 1 (Homo sapiens, UniProt P17948)
# Assay: Inhibition of VEGFR1 by enzymatic assay
row,IC50,SMILES
1,0.34 µM,Cn1cnc(NCc2ccncc2)c1-c1nnc(Nc2ccc(Cl)cc2)o1
2,> 10 µM,Cn1cnc(NCc2ccncc2)c1-c1nnc(Nc2ccc(Cc3ccccc3)cc2)o1
3,0.51 µM,Cn1cnc(NCc2ccncc2)c1-c1nnc(Nc2ccc(Cl)c(C(F)(F)F)c2)o1
4,1.47 µM,Cn1cnc(NCCc2ccc3c(c2)OCO3)c1-c1nnc(Nc2ccc(Cl)cc2)o1

# Biological target: Cyclin-dependent kinase 2 (Homo sapiens) (UniProt P24941)
# Assay: […] against Cdk2 at 10 uM by HTRF method
row,Percent inhibition,SMILES
1,< 30%,Cn1cnc(NCc2ccncc2)c1-c1nnc(Nc2ccc(Cl)cc2)o1
2,< 30%,Cn1cnc(NCc2ccncc2)c1-c1nnc(Nc2ccc(Cc3ccccc3)cc2)o1
3,< 30%,Cn1cnc(NCc2ccncc2)c1-c1nnc(Nc2ccc(Cl)c(C(F)(F)F)c2)o1
4,< 30%,Cn1cnc(NCCc2ccc3c(c2)OCO3)c1-c1nnc(Nc2ccc(Cl)cc2)o1

# Biological target: Hepatocyte growth factor receptor (Homo sapiens) (UniProt P08581)
# Sequence (P08581 whole entry): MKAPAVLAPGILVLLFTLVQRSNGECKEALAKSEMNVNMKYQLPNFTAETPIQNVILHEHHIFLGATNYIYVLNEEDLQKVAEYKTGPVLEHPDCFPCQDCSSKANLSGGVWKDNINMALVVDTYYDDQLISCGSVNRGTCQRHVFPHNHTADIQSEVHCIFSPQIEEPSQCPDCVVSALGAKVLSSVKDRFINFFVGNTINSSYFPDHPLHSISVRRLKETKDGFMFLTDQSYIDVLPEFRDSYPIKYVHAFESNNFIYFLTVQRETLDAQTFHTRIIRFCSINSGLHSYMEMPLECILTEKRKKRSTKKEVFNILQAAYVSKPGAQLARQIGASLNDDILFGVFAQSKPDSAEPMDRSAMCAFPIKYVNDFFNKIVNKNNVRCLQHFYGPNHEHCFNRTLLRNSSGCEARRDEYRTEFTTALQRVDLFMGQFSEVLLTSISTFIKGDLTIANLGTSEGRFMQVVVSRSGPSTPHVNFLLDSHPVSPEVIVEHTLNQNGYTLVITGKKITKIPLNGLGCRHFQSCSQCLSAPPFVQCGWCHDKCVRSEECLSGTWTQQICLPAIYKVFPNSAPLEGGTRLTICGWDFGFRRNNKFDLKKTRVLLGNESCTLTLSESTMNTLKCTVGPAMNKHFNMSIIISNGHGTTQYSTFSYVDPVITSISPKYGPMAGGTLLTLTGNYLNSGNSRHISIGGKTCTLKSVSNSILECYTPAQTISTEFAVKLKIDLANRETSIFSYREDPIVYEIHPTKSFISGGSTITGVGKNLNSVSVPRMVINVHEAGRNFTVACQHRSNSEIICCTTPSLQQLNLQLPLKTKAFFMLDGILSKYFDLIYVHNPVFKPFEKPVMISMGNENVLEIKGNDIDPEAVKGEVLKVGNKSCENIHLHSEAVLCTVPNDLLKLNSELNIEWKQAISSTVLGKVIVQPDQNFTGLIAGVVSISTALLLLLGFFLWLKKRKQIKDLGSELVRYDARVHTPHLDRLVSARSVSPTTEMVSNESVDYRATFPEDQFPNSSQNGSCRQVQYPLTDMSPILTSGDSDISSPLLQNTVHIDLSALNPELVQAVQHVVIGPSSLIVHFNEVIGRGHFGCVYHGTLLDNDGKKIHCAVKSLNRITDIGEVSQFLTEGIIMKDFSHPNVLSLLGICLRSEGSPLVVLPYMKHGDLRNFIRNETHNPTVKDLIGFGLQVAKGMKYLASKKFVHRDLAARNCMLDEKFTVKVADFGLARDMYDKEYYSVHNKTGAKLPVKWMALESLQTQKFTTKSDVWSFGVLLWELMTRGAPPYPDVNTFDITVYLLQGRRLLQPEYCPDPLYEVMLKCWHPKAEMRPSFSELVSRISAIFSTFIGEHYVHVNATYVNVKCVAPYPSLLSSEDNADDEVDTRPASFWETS
# Assay: Percent inhibition against c-Met at 10 uM by HTRF method
# Set-up: scale not given: the % may be the effect or the level left
row,Activity,SMILES
1,< 30%,Cn1cnc(NCc2ccncc2)c1-c1nnc(Nc2ccc(Cl)cc2)o1
2,< 30%,Cn1cnc(NCc2ccncc2)c1-c1nnc(Nc2ccc(Cc3ccccc3)cc2)o1
3,< 30%,Cn1cnc(NCc2ccncc2)c1-c1nnc(Nc2ccc(Cl)c(C(F)(F)F)c2)o1
4,< 30%,Cn1cnc(NCCc2ccc3c(c2)OCO3)c1-c1nnc(Nc2ccc(Cl)cc2)o1

# Biological target: Cyclin-dependent kinase 5 (Homo sapiens) (UniProt Q00535)
# Sequence (Q00535 whole entry, looked up): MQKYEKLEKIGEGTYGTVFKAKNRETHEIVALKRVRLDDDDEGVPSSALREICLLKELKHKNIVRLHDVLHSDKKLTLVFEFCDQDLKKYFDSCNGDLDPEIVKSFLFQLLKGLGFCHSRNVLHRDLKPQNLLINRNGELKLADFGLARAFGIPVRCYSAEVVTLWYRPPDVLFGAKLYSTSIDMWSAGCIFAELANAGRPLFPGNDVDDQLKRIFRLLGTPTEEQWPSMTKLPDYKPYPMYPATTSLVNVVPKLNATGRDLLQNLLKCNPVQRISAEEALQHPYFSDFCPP
# Assay: […] against Cdk5 at 10 uM by HTRF method
row,Activity,SMILES
1,< 30%,Cn1cnc(NCc2ccncc2)c1-c1nnc(Nc2ccc(Cl)cc2)o1
2,< 30%,Cn1cnc(NCc2ccncc2)c1-c1nnc(Nc2ccc(Cc3ccccc3)cc2)o1
3,< 30%,Cn1cnc(NCc2ccncc2)c1-c1nnc(Nc2ccc(Cl)c(C(F)(F)F)c2)o1
4,< 30%,Cn1cnc(NCCc2ccc3c(c2)OCO3)c1-c1nnc(Nc2ccc(Cl)cc2)o1

# Biological target: Bcr/Abl fusion protein (Homo sapiens) (UniProt P00519+P11274)
# Assay: Inhibition of bcr-Abl at 10 uM by HTRF method
# Assay type: protein assay
# Set-up: scale not given: the % may be the effect or the level left
row,Activity,SMILES
1,< 30%,Cn1cnc(NCc2ccncc2)c1-c1nnc(Nc2ccc(Cl)cc2)o1
2,< 30%,Cn1cnc(NCc2ccncc2)c1-c1nnc(Nc2ccc(Cc3ccccc3)cc2)o1
3,< 30%,Cn1cnc(NCc2ccncc2)c1-c1nnc(Nc2ccc(Cl)c(C(F)(F)F)c2)o1
4,< 30%,Cn1cnc(NCCc2ccc3c(c2)OCO3)c1-c1nnc(Nc2ccc(Cl)cc2)o1

# Biological target: Receptor tyrosine-protein kinase erbB-2 (Homo sapiens) (UniProt P04626)
# Sequence (P04626 whole entry): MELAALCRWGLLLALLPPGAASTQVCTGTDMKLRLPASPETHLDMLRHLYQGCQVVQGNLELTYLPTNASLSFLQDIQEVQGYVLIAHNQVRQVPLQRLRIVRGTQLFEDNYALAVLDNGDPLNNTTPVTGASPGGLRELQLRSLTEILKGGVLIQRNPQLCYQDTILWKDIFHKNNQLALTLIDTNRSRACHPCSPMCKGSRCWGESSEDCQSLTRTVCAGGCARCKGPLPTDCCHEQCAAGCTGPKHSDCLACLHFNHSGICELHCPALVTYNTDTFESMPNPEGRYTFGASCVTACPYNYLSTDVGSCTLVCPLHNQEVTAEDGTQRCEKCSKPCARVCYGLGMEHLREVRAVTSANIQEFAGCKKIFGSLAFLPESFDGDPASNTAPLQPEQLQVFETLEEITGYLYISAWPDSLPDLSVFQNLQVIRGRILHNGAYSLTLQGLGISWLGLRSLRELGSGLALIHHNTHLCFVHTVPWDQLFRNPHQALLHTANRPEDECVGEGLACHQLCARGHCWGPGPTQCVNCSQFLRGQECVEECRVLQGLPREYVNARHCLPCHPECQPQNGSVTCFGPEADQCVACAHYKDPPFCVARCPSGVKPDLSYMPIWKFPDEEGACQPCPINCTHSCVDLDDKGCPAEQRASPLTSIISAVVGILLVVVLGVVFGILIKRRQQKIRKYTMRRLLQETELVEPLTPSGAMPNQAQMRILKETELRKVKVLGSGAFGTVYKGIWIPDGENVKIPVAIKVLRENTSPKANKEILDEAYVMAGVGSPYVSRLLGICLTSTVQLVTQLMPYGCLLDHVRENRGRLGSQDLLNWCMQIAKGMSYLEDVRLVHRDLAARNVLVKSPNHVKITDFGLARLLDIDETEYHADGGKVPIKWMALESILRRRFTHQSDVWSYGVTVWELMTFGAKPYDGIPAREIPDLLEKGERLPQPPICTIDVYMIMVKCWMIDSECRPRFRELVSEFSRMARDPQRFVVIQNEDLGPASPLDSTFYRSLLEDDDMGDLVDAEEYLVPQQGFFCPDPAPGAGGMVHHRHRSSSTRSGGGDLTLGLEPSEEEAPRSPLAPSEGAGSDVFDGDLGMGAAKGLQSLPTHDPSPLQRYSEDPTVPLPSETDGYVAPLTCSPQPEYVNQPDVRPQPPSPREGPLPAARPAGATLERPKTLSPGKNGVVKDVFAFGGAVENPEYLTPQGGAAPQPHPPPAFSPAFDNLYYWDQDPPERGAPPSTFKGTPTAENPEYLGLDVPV
# Assay: […] against ErbB2 at 10 uM by HTRF method
row,Activity,SMILES
1,< 30%,Cn1cnc(NCc2ccncc2)c1-c1nnc(Nc2ccc(Cl)cc2)o1
2,< 30%,Cn1cnc(NCc2ccncc2)c1-c1nnc(Nc2ccc(Cc3ccccc3)cc2)o1
3,< 30%,Cn1cnc(NCc2ccncc2)c1-c1nnc(Nc2ccc(Cl)c(C(F)(F)F)c2)o1
4,< 30%,Cn1cnc(NCCc2ccc3c(c2)OCO3)c1-c1nnc(Nc2ccc(Cl)cc2)o1

# Biological target: cAMP-dependent protein kinase (PKA) (Homo sapiens) (UniProt P22694+P17612+P22612)
# Assay: Inhibition against PKA at 10 uM by HTRF method
# Assay type: protein assay
# Set-up: scale not given: the % may be the effect or the level left
row,Activity,SMILES
1,< 30%,Cn1cnc(NCc2ccncc2)c1-c1nnc(Nc2ccc(Cl)cc2)o1
2,< 30%,Cn1cnc(NCc2ccncc2)c1-c1nnc(Nc2ccc(Cc3ccccc3)cc2)o1
3,< 30%,Cn1cnc(NCc2ccncc2)c1-c1nnc(Nc2ccc(Cl)c(C(F)(F)F)c2)o1
4,< 30%,Cn1cnc(NCCc2ccc3c(c2)OCO3)c1-c1nnc(Nc2ccc(Cl)cc2)o1

# Biological target: RAC-alpha serine/threonine-protein kinase (Homo sapiens) (UniProt P31749)
# Assay: […] against PKB/Akt at 10 uM by HTRF method
row,Activity,SMILES
1,< 30%,Cn1cnc(NCc2ccncc2)c1-c1nnc(Nc2ccc(Cl)cc2)o1
2,< 30%,Cn1cnc(NCc2ccncc2)c1-c1nnc(Nc2ccc(Cc3ccccc3)cc2)o1
3,< 30%,Cn1cnc(NCc2ccncc2)c1-c1nnc(Nc2ccc(Cl)c(C(F)(F)F)c2)o1
4,< 30%,Cn1cnc(NCCc2ccc3c(c2)OCO3)c1-c1nnc(Nc2ccc(Cl)cc2)o1

# Biological target: Epidermal growth factor receptor (Homo sapiens) (UniProt P00533)
# Assay: […] against ErbB1 at 10 uM by HTRF method
row,Percent inhibition,SMILES
1,< 30%,Cn1cnc(NCc2ccncc2)c1-c1nnc(Nc2ccc(Cl)cc2)o1
2,< 30%,Cn1cnc(NCc2ccncc2)c1-c1nnc(Nc2ccc(Cc3ccccc3)cc2)o1
3,< 30%,Cn1cnc(NCc2ccncc2)c1-c1nnc(Nc2ccc(Cl)c(C(F)(F)F)c2)o1
4,< 30%,Cn1cnc(NCCc2ccc3c(c2)OCO3)c1-c1nnc(Nc2ccc(Cl)cc2)o1

# Biological target: Receptor-type tyrosine-protein kinase FLT3 (Homo sapiens) (UniProt P36888)
# Assay: Inhibition of Flt3 at 10 uM by HTRF method
# Set-up: scale not given: the % may be the effect or the level left
row,Activity,SMILES
1,< 30%,Cn1cnc(NCc2ccncc2)c1-c1nnc(Nc2ccc(Cl)cc2)o1
2,< 30%,Cn1cnc(NCc2ccncc2)c1-c1nnc(Nc2ccc(Cc3ccccc3)cc2)o1
3,< 30%,Cn1cnc(NCc2ccncc2)c1-c1nnc(Nc2ccc(Cl)c(C(F)(F)F)c2)o1
4,< 30%,Cn1cnc(NCCc2ccc3c(c2)OCO3)c1-c1nnc(Nc2ccc(Cl)cc2)o1

# Biological target: Glycogen synthase kinase-3 beta (Homo sapiens) (UniProt P49841)
# Sequence (P49841 whole entry, looked up): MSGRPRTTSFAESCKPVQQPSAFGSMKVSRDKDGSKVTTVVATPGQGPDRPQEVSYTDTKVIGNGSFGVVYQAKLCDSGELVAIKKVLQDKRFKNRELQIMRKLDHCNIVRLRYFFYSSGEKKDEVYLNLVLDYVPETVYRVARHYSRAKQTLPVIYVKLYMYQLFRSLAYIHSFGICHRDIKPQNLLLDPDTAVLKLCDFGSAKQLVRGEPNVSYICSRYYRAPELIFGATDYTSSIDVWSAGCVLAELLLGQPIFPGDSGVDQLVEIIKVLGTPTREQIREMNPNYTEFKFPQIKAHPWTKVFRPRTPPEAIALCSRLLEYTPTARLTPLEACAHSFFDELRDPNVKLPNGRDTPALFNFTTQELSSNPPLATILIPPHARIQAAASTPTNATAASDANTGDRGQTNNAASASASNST
# Assay: Inhibition against GSK3-beta at 10 uM by HTRF method
# Set-up: scale not given: the % may be the effect or the level left
row,Activity,SMILES
1,< 30%,Cn1cnc(NCc2ccncc2)c1-c1nnc(Nc2ccc(Cl)cc2)o1
2,< 30%,Cn1cnc(NCc2ccncc2)c1-c1nnc(Nc2ccc(Cc3ccccc3)cc2)o1
3,< 30%,Cn1cnc(NCc2ccncc2)c1-c1nnc(Nc2ccc(Cl)c(C(F)(F)F)c2)o1
4,< 30%,Cn1cnc(NCCc2ccc3c(c2)OCO3)c1-c1nnc(Nc2ccc(Cl)cc2)o1

# Biological target: Insulin-like growth factor 1 receptor (Homo sapiens) (UniProt P08069)
# Assay: […] against IGF1R at 10 uM by HTRF method
row,Activity,SMILES
1,< 30%,Cn1cnc(NCc2ccncc2)c1-c1nnc(Nc2ccc(Cl)cc2)o1
2,< 30%,Cn1cnc(NCc2ccncc2)c1-c1nnc(Nc2ccc(Cc3ccccc3)cc2)o1
3,< 30%,Cn1cnc(NCc2ccncc2)c1-c1nnc(Nc2ccc(Cl)c(C(F)(F)F)c2)o1
4,< 30%,Cn1cnc(NCCc2ccc3c(c2)OCO3)c1-c1nnc(Nc2ccc(Cl)cc2)o1

# Biological target: Fibroblast growth factor receptor 1 (Homo sapiens) (UniProt P11362)
# Assay: Percent inhibition against FGFR1 at 10 uM by HTRF method
# Set-up: scale not given: the % may be the effect or the level left
row,Activity,SMILES
1,< 30%,Cn1cnc(NCc2ccncc2)c1-c1nnc(Nc2ccc(Cl)cc2)o1
2,< 30%,Cn1cnc(NCc2ccncc2)c1-c1nnc(Nc2ccc(Cc3ccccc3)cc2)o1
3,< 30%,Cn1cnc(NCc2ccncc2)c1-c1nnc(Nc2ccc(Cl)c(C(F)(F)F)c2)o1
4,< 30%,Cn1cnc(NCCc2ccc3c(c2)OCO3)c1-c1nnc(Nc2ccc(Cl)cc2)o1

# Biological target: T1, Vascular endothelial growth factor receptor 2 (Homo sapiens, UniProt P35968)
# T1 sequence (P35968 whole entry): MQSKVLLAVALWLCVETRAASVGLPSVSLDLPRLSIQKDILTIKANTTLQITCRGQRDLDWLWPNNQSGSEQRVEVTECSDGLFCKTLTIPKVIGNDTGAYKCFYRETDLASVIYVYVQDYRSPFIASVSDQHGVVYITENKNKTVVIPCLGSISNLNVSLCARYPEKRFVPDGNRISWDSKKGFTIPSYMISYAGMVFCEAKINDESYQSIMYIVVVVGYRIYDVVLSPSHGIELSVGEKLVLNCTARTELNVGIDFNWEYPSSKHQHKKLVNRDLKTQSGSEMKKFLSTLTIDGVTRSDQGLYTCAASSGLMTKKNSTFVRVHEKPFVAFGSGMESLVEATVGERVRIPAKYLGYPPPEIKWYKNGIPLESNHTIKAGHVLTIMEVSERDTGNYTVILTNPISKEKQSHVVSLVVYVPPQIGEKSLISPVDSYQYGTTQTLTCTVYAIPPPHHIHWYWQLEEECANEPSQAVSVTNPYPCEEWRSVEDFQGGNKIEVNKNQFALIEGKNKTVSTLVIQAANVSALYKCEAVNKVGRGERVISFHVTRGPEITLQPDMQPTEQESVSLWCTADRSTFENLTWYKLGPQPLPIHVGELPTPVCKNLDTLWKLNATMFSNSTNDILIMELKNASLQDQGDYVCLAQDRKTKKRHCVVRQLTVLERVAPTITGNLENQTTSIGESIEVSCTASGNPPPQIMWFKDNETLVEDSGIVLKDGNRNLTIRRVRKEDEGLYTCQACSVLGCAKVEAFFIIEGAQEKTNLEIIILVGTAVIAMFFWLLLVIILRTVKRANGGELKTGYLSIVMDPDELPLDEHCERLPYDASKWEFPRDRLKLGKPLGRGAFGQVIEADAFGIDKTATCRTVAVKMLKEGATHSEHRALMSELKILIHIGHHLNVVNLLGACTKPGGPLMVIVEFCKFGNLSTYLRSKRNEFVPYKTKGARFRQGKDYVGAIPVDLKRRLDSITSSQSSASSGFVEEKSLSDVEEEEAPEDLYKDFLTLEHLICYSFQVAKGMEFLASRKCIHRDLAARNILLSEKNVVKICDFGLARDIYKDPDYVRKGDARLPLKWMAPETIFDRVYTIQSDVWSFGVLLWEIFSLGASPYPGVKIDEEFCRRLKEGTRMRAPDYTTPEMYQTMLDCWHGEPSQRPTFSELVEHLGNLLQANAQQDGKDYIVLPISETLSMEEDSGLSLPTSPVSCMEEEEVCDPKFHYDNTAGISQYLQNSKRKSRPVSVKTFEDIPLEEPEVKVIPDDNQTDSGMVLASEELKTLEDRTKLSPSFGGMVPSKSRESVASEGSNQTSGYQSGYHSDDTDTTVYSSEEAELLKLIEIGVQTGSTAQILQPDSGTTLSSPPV
# Assay: Inhibition of VEGFR2 by enzymatic assay
row,IC50,SMILES
1,0.25 µM,Cn1cnc(NCc2ccncc2)c1-c1nnc(Nc2ccc(Cl)cc2)o1
2,> 10 µM,Cn1cnc(NCc2ccncc2)c1-c1nnc(Nc2ccc(Cc3ccccc3)cc2)o1
3,0.043 µM,Cn1cnc(NCc2ccncc2)c1-c1nnc(Nc2ccc(Cl)c(C(F)(F)F)c2)o1
4,0.96 µM,Cn1cnc(NCCc2ccc3c(c2)OCO3)c1-c1nnc(Nc2ccc(Cl)cc2)o1

# Biological target: T1, Vascular endothelial growth factor receptor 2
# Assay: Inhibition of VEGFR2 in 293 adenovirus transfected kidney cells by cell-based ELISA assay
row,IC50,SMILES
1,0.57 µM,Cn1cnc(NCc2ccncc2)c1-c1nnc(Nc2ccc(Cl)cc2)o1
2,0.1 µM,Cn1cnc(NCc2ccncc2)c1-c1nnc(Nc2ccc(Cl)c(C(F)(F)F)c2)o1
3,> 10 µM,Cn1cnc(NCCc2ccc3c(c2)OCO3)c1-c1nnc(Nc2ccc(Cl)cc2)o1

# Biological target: T2, Ephrin type-B receptor 4 (Homo sapiens) (UniProt P54760)
# T2 sequence (whole entry): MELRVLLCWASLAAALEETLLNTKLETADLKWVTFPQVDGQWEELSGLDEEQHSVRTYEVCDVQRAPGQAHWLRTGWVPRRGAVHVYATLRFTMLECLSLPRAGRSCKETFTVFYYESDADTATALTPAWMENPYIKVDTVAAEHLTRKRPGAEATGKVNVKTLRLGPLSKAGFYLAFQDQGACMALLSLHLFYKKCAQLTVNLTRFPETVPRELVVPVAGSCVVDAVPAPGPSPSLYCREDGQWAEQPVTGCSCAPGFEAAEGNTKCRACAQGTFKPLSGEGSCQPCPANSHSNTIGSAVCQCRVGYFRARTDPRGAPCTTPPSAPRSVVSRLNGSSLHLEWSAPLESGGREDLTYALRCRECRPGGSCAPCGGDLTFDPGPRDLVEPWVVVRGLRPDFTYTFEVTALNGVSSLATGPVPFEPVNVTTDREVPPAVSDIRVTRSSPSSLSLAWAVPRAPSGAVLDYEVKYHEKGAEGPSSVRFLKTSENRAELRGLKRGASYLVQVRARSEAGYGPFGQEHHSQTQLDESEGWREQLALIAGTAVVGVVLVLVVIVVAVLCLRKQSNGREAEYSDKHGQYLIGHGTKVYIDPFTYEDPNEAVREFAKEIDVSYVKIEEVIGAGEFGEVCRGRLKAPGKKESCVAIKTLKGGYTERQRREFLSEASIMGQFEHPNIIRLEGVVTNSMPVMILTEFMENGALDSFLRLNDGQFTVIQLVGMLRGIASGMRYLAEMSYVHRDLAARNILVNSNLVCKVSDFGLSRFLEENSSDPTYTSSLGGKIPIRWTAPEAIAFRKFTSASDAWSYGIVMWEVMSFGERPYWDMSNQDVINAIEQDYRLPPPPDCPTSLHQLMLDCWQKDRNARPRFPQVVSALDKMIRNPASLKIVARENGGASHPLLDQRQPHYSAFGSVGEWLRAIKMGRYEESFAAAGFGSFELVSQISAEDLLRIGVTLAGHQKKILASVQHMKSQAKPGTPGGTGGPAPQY
# Assay: Percent inhibition against EphB4 at 10 uM by HTRF method
# Set-up: scale not given: the % may be the effect or the level left
row,Activity,SMILES
1,< 30%,Cn1cnc(NCc2ccncc2)c1-c1nnc(Nc2ccc(Cl)cc2)o1
2,< 30%,Cn1cnc(NCc2ccncc2)c1-c1nnc(Nc2ccc(Cc3ccccc3)cc2)o1
3,< 30%,Cn1cnc(NCc2ccncc2)c1-c1nnc(Nc2ccc(Cl)c(C(F)(F)F)c2)o1
4,< 30%,Cn1cnc(NCCc2ccc3c(c2)OCO3)c1-c1nnc(Nc2ccc(Cl)cc2)o1
